# Measurements reported in patent publication US10682382B2, “Composition for relieving pain, stress and insomnia” (priority 2014, dated 2020).
# Experiments:
# [1] = system: REM sleep deprivation induced hyperalgesia; assay: REM sleep deprivation induced hyperalgesia (modified flowerpot technique, hot plate method); assay type: in vivo, Male albino Wistar rats
# From the text: The modified flowerpot technique was used to induce REM sleep deprivation. In this method, rats are placed on elevated platforms in a water tank for 96 hrs. During REM sleep muscle atonia occurs as a result of which when an animal enters REM sleep it falls from the platform into the water. Therefore the animal wakes up and climbs onto platform again. This method prevents REM sleep and permits other sleep stages.
# The paws of rats are very sensitive to heat at temperatures which are not damaging to the skin. The responses shown by rats placed on a hot plate are jumping, withdrawal of the paws and licking of the paws. This test is thus used to assess the pain threshold and the animal's response to mild painful stimuli.
# To induce sleep deprivation, an acrylic box (24 cm×18 cm×18 cm) with platforms of height 9 cm and 6 cm diameter was used. Water was filled, in the box upto a level of 1 cm below the platform. 6 animals were placed on each platform for 96 hrs. One platform was kept vacant to reduce immobilization stress. […] The responses of the animals to painful stimuli were observed (licking of paws, jumping, paw withdrawal) and the duration of time the animal could remain on the hot plate was recorded. […] One hour after application of the test substances, the animals were again subjected to the hot plate and the response was evaluated. […]
# [2] = system: carrageenan induced paw oedema; assay: Carrageenan induced paw oedema in rats (topical application, plethysmographic paw volume); settings: mean ± SD, n = 6; for Paw volume, carrageenan induced paw oedema: topical application 7 days + day 8; for Percentage change in carrageenan induced paw oedema (paw volume): ((Vt−Vo)/Vo)×100
compound,measurement,setting,value
O=C(O)Cc1ccccc1Nc1c(Cl)cccc1Cl [Diclofenac],Increase in paw withdrawal time,"[1]; after minus before formulation, hot plate",6.00
same,"Paw withdrawal time, before formulation","[1]; hot plate 50±2° C. after 96 hrs REM sleep deprivation, before application of test substance, cut-off 60 seconds, mean ± SD, n = 6",6.67 ± 3.33 s
same,"Paw volume, carrageenan induced paw oedema",[2]; 0 hr (immediately before carrageenan),0.23 ± 0.05
same,"Paw volume, carrageenan induced paw oedema",[2]; 2 hr after carrageenan,0.67 ± 0.06
same,Percentage change in carrageenan induced paw oedema (paw volume),[2]; 2 hr vs 0 hr,202.5 ± 79.48%
same,"Paw volume, carrageenan induced paw oedema",[2]; 5 hr after carrageenan,0.38 ± 0.05
same,Percentage change in carrageenan induced paw oedema (paw volume),[2]; 5 hr vs 0 hr,75 ± 82.15 %
same,"Paw volume, carrageenan induced paw oedema",[2]; 24 hr after carrageenan,0.20 ± 0.05
same,Percentage change in carrageenan induced paw oedema (paw volume),[2]; 24 hr vs 0 hr,−16.66 ± 25.81 %
